Measurements taken from US20080070917A1, “METHODS FOR ADMINISTERING LEVOSIMENDAN” (priority 2005, published 2008).
Like-named read-outs stand apart in the source and are kept apart here.

Assays:
Unbound plasma fraction = type: in vitro ADME
[1] = system: patients with New York Heart Association functional class II to III heart failure; experiment: Double-blind, placebo-controlled study of a 24-hour levosimendan infusion in heart failure patients; type: in vivo, human
Protocol: A double-blind, placebo-controlled, parallel group, single center study in patients with New York Heart Association functional class II to III heart failure was conducted. Patients were randomised in 1:1 ratio to receive either levosimendan or placebo. Study drug administration was initiated with a loading dose of 12 μg/kg of levosimendan or placebo delivered over 10 minutes. This was followed by a continuous infusion of 0.1 μg/kg/min for 50 minutes. If the dose was well tolerated the infusion rate was increased to 0.2 μg/kg/min for a further 23 hours. After the study drug was started, the hemodynamic assessments were repeated at 30 minutes, at two and six hours. The non-invasive hemodynamic assessments were repeated at 24-hours. Follow-up visits took place at 2, 3, 5, 7, 9 and 14 days from the beginning of the study. On these visits echocardiographic measurements were performed and blood pressure and heart rate were measured.
An Acuson Sequoia ultrasound system with 2.5-3.75 MHz probes was used for the Doppler echocardiographic measurements. Blood flow velocity curves were recorded at a sweep speed of 100 mm/s. Left ventricular ejection fraction was assessed by two-dimensional apical two- and four-chamber views with use of modified Simpson rule. Mitral flow velocity was assessed by pulsed wave Doppler from the apical four-chamber view by placing a 3-mm sample volume between the tip of the mitral leaflets in diastole. The following measurements were made over five consecutive cycles: maximal early and maximal late diastolic velocity and their ratio, duration of the late diastolic velocity wave, deceleration time and deceleration rate of early diastolic velocity. Peak velocities were defined as the highest point of the spectrum.
Blood samples (4 ml) for natriuretic peptide (NT-proANP, NT-proBNP) measurements were taken into pre-cooled EDTA tubes. Samples were taken at baseline (0-sample) and on the first study day 30 min, 2 h, 6h and 24 h after the start of the infusion and in the mornings of days 2, 3, 5, 7, 9 and 14 after the start of the study drug infusion.

CHF patients = experiment: PK-PD meta-analysis (NONMEM, Emax model) of eight studies in CHF patients; type: in vivo, human; conditions: for EC50: Homo sapiens, effective concentration (composite of levosimendan, OR-1855, OR-1896)
Protocol: Data from eight studies (Studies 300102, 300103, 300105, 3001022, 3001024, 3001040, 3001058 (Group 1 and 2) and 3001058 (Group 4)) (335 CHF patients) were combined to generate the PK-PD dataset. Dose regimens included infusions of various doses (0.25-70.6 mg) and infusion durations (5 min-7 days), with or without an initial loading dose. In addition to plasma concentration-time data the PD variables utilized in the PK-PD evaluation were PCWP, CI, HR, SBP, and DBP.
Population PK models were built using a non-linear mixed-effect population modelling approach with the NONMEM software. The sequence of modelling was such that levosimendan PK was modelled first. Then the levosimendan portion of the full PK model was fixed, and individual PK parameters were carried forward in order to simultaneously model the metabolites PK. In the PK model it was assumed that levosimendan is fully metabolized to OR-1855, which is further metabolized to OR-1896. A gut compartment with first-order input from the levosimendan compartment and first-order output to the OR 1855 compartment was incorporated to account for the considerable delay between levosimendan elimination and metabolite appearance. This delay represents transport of levosimendan from plasma to gut and further transit to colon, metabolism of levosimendan to OR-1855 in the colon, and the subsequent absorption of OR-1855 from the colon. Elimination of the metabolites and inter-conversion between the two metabolites were modelled as first-order processes (See, FIG. 1). A mixture model allowing different inter-conversion rates for slow and rapid acetylators was beneficial in describing the data.
Covariates (fixed effects) such as demographic characteristics and patient attributes, for e.g. ejection fraction (EF), New York Heart Association classification (NYHA), serum bilirubin, and creatinine clearance etc. were tested individually in a stepwise method. The intra-subject effects or residual error was modelled as additive, proportional (constant coefficient of variation) or combination of the two for the PK model. The inter-subject effects were modelled as exponential error model.
The full PK models for levosimendan and its metabolites were fixed for the PD modelling. For each individual, plasma concentrations were calculated using the post-hoc PK parameter estimates for that individual. A maximal drug effect (Emax) model described by the following general equation was used to describe the relation between the estimated concentrations of drug and metabolites, and effect. E=Emax*Ceff/(EC50+Ceff) • Where: Ceff is the apparent effective concentration in the hypothetical effect compartment that may be a composite of drug and metabolite concentrations; EC50 is the effective concentration required to achieve 50% of Emax.
The equilibration rate constant (ke0) controls the time delay between the time courses of levosimendan concentration in the central compartment (Cp) and levosimendan concentration in the effect compartment (Clevo), and is expressed as dClevo/dT=ke0·(Cp−Clevo).
The contributions of the drug and the metabolites to the PD effects were modeled using a competitive agonist model that assumed same efficacy (Emax), but different potencies (EC50) for different compounds. A potency factor (RP) accounted for differences in potency and protein binding relative to levosimendan. […] Ceff=Clevo+RP1·COR-1855+RP2·COR-1896
Where RP1 and RP2 are the potencies of OR-1855 and OR-1896 relative to levosimendan, respectively.
The drug response was modelled as the absolute change from baseline and as the fractional change from baseline. The non-drug response was modelled either as a time dependent function or as an instantaneous response based on the following equations.
Where SSS is the maximum non-drug-related response. The exponent “a” represents the rate of onset of the non-drug response over time. […]

[2] = system: subjects hospitalized with acute decompensation of heart failure; experiment: Phase 3, double-blind, placebo-controlled study in acute decompensation of heart failure (Example 5); type: in vivo, human
Protocol: This was a Phase 3, double-blind, placebo-controlled, parallel-group study in subjects hospitalized with a primary or secondary admitting diagnosis of acute decompensation of heart failure. The treatment period was up to 24 hours for each subject with at least 90 days follow-up after the start of the study drug infusion. All baseline medications (including use of beta-blockers and other medications) were recorded for each patient. The study evaluated hospitalized subjects (n=600) with a primary or secondary admitting diagnosis of worsening heart failure, with symptoms at rest despite treatment with IV diuretic therapy. […] Infusion rates for background therapy of continuous IV diuretics, inotropes and vasodilators had to have been unchanged for at least two hours prior to the baseline evaluation. Left ventricular ejection fraction (EF) was required to be less than or equal to 35% as assessed within the previous 12 months. Subjects were randomized to either levosimendan (n=299) or placebo (n=301) in addition to standard-of-care. Levosimendan treatment was initiated with a total loading dose of […] administered over 10 minutes (6 mg/kg for subjects on concomitant IV vasodilators or inotropes at the start of the study drug infusion) followed by a continuous infusion of […] for the following 50 minutes. If the dose was well tolerated, the infusion rate was increased to 0.2 mg/kg/min for a further 23 hours. If the higher dose was not well tolerated it was reduced to […] and then further to 0.05 mg/kg/min if required. On completion of 24 hours the infusion is turned off abruptly.
The primary objective of this study was to compare the efficacy between levosimendan and placebo treatments using the clinical composite endpoint (CCE) incorporating a subject reported PGA at 6 hours, 24 hours and Day 5, combined with clinical criteria for worsening heart failure through 5 days after the start of study drug infusion. In contrast to REVIVE I, the was CCE included a PGA at 6 hours as part of the primary endpoint and diuretics at any time during the 5 day assessment period were included as rescue therapy.
Episodes of worsening heart failure treated with a rescue therapy were collected during the initial hospitalization until Day 5 or discharge whichever was later. Safety parameters such as adverse events (AEs), HR, […] (BP), routine laboratory tests, and ECG were monitored frequently up to 31 days, with hospitalization and mortality extended to 90 days after start of study drug infusion. Survival was monitored for all randomized subjects from Day 90 until the last subject underwent the final scheduled visit.

C[C@@H]1CC(=O)NN=C1c1ccc(NN=C(C#N)C#N)cc1 [levosimendan, (−)-enantiomer of [[4-(1,4,5,6-tetrahydro-4-methyl-6-oxo-3-pyridazinyl)phenyl]hydrazono]propanedinitrile]
Unbound plasma fraction (Unbound plasma fraction): 0.025 | Maintenance of beneficial hemodynamic and neurohormonal effects ([1]; after levosimendan administration): up to two weeks | Time of lowest echocardiographically estimated PCWP ([1]; after starting the infusion): 2 days | Day of lowest plasma NT-proANP level ([1]; human, in vivo): 3 days | Day of lowest plasma NT-proBNP level ([1]; human, in vivo): 2 days | Duration of treatment effect on NT-proANP, linear model ([1]; human, in vivo): 16 days | Duration of treatment effect on NT-proBNP, linear model ([1]; human, in vivo): 12 days | Time of highest CO value estimated by echocardiography ([1]; human, in vivo): at the end of the 24-hour infusion | EC50 (CHF patients; read-out: Post-hoc Mean EC50, CI): 0.09 µg/mL | EC50 (CHF patients; read-out: Post-hoc Mean EC50, DBP): 0.154 µg/mL | EC50 (CHF patients; read-out: Post-hoc Mean EC50, HR): 0.198 µg/mL | EC50 (CHF patients; read-out: Post-hoc Mean EC50, PCWP): 0.0511 µg/mL | EC50 (CHF patients; read-out: Post-hoc Mean EC50, SBP): 0.047 µg/mL | Post-hoc Mean Emax, CI (CHF patients; baseline mean 2.21): 1.15 L/m^2/min | Post-hoc Mean Emax, PCWP (CHF patients; baseline mean 20.8): −7.8 mmHg | Post-hoc Mean Emax, DBP (CHF patients; baseline mean 71): −13.3 mmHg | Post-hoc Mean Emax, HR (CHF patients; baseline mean 76): 18 Bpm | Post-hoc Mean Emax, SBP (CHF patients; baseline mean 118): −7.1 mmHg | Proportion of patients reporting moderate to marked improvement in dyspnea ([2]; at 6 hours (91/299), placebo/SOC 25.2%): 30.4% | Improvement in self assessment (PGA) compared to placebo/SOC ([2]; beta-blocked patients, over the first 5 days, p=0.001): significantly greater improvement | Improvement in self assessment (dyspnea) compared to placebo/SOC ([2]; over the first 5 days, p=0.018): significantly greater improvement | Proportion of patients reporting moderate to marked improvement in PGA ([2]; overall population, at 6 hours (85/299), placebo/SOC 23.9%): 28.4% | Improvement in PGA compared to placebo/SOC ([2]; overall population, over 5 days, p=0.002): significantly greater improvement | Difference in PGA improvement compared to placebo/SOC ([2]; patients not receiving beta-blocker therapy (n=96)): not statistically significant | Difference in dyspnea improvement between treatment groups ([2]; patients not receiving beta-blocker therapy, first 5 days): not statistically significant | Proportion reporting moderate to marked improvements in dyspnea compared to placebo/SOC ([2]; patients receiving a beta-blocker at baseline, at 6 hours): greater proportion | Proportion of patients reporting moderate to marked improvements in PGA ([2]; patients receiving a beta-blocker at baseline, at 6 hours, placebo/SOC 34%): 44% | Improvement in dyspnea compared to placebo/SOC ([2]; patients receiving beta-blockers, over the first 5 days, p=0.0016): significantly greater improvement | Other secondary endpoints, except 90-day mortality ([2]; versus placebo): trended in favor of levosimendan but did not reach statistical significance
